The test concerns HBV. Kind of test: HBV-DNA Antiviral Assay Using HepG2.117 Cells (intracellular HBV DNA by qPCR). The following applies: Hepatitis B virus, HepG2.117. The test is classed as cell-based, hepatitis B virus (genotype D). The essentials: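 HepG2.117 cells (genotype D HBV, Tet-off) were induced by doxycycline withdrawal and treated for 3 days with 9 concentrations in 4-fold dilution, 2% DMSO final. Intracellular HBV DNA was measured by qPCR against a standard curve, with ATPlite viability read in parallel. EC50, EC90 and CC50 came from fits against the DMSO control.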
The term EC50 denotes the concentration that produces a half-maximal response. Higher therefore signals lower potency in that assay. Compound `C[C@H](Oc1ccc(-n2c(C(=O)NCc3ccccc3)c3n(c2=O)CCN(C(=O)c2ccc(Br)c(Cl)c2)C3)cc1)C(F)(F)F` (stereo in doubt) [Example 283, N-benzyl-7-(4-bromo-3-chloro-benozyl)-3-oxo-2-[4-[rac-(1S)-2,2,2-trifluoro-1-methyl-ethoxy]phenyl]-6,8-dihydro-5H-imidazo[1,5-a]pyrazine-1-carboxamide] displayed an EC50 of 500 to 5000 nM. The value for `C[C@@H](NC(=O)c1c2n(c(=O)n1-c1ccc(-n3cccn3)cc1)CCN(C(=O)c1ccc(Br)c(Cl)c1)C2)c1ccccc1F` (stereo in doubt) [Example 405, 7-(4-bromo-3-chloro-benzoyl)-3-oxo-2-(4-pyrazol-1-ylphenyl)-N-[rac-(1R)-1-(2-fluorophenyl)ethyl]-6,8-dihydro-5H-imidazo[1,5-a]pyrazine-1-carboxamide] was under 100 nM; that for `O=C(NCc1ccccc1)c1c2n(c(=O)n1-c1ccc(N3CCC3)cc1)CCN(C(=O)c1ccc(Br)c(Cl)c1)C2` [Example 390, 2-[4-(azetidin-1-yl)phenyl]-N-benzyl-7-(4-bromo-3-chloro-benzoyl)-3-oxo-6,8-dihydro-5H-imidazo[1,5-a]pyrazine-1-carboxamide] was 100 to 500 nM. The value for `COc1ccc(-n2c(C(=O)NCc3ccc(C)c(OC)c3)c3n(c2=O)CCN(C(=O)c2ccc(Cl)c(Cl)c2)C3)cc1` [Example 90, 7-(3,4-dichlorobenzoyl)-N-[(3-methoxy-4-methyl-phenyl)methyl]-2-(4-methoxyphenyl)-3-oxo-6,8-dihydro-5H-imidazo[1,5-a]pyrazine-1-carboxamide] was 500 to 5000 nM.

In turn, `COc1ccc(-n2c(C(=O)NC(c3ccccc3)C(C)C)c3n(c2=O)CCN(C(=O)c2ccc(Br)c(Cl)c2)C3)cc1` (racemic) [Example 160, 7-(4-bromo-3-chloro-benzoyl)-2-(4-methoxyphenyl)-3-oxo-N-[rac-(1S)-2-methyl-1-phenyl-propyl]-6,8-dihydro-5H-imidazo[1,5-a]pyrazine-1-carboxamide] yielded an EC50 of 500 to 5000 nM.

Consider `CC(C)Oc1ccc(-n2c(C(=O)NCc3ccccc3)c3n(c2=O)CCN(C(=O)c2cc4c(Cl)cccc4s2)C3)cc1` [Example 224, N-benzyl-7-(4-chlorobenzothiophene-2-carbonyl)-2-(4-isopropoxyphenyl)-3-oxo-6,8-dihydro-5H-imidazo[1,5-a]pyrazine-1-carboxamide], for which the EC50 is over 5000 nM. The value for `CC1(C)CN(c2ccc(-n3c(C(=O)NCc4ccccc4)c4n(c3=O)CCN(C(=O)c3ccc(Br)c(Cl)c3)C4)cc2)CCO1` [Example 410, N-benzyl-7-(4-bromo-3-chloro-benzoyl)-2-[4-(2,2-dimethylmorpholin-4-yl)phenyl]-3-oxo-6,8-dihydro-5H-imidazo[1,5-a]pyrazine-1-carboxamide] was 100 to 500 nM; that for `C[C@H](NC(=O)c1c2n(c(=O)n1-c1ccc(OC3CCC3)cc1)CCN(C(=O)c1ccc(Br)c(Cl)c1)C2)c1ccccc1` (stereo in doubt) [Example 136, 7-(4-bromo-3-chloro-benzoyl)-2-[4-(cyclobutoxy)phenyl]-3-oxo-N-[rac-(1S)-1-phenylethyl]-6,8-dihydro-5H-imidazo[1,5-a]pyrazine-1-carboxamide] was 100 to 500 nM; that for `NC(=O)COc1ccc(CNC(=O)c2c3n(c(=O)n2-c2ccc(OCC(F)(F)F)cc2)CCN(C(=O)c2ccc(Br)c(Cl)c2)C3)c(F)c1` [Example 303, N-[[4-(2-amino-2-oxo-ethoxy)-2-fluoro-phenyl]methyl]-7-(4-bromo-3-chloro-benzoyl)-3-oxo-2-[4-(2,2,2-trifluoroethoxy)phenyl]-6,8-dihydro-5H-imidazo[1,5-a]pyrazine-1-carboxamide] was 500 to 5000 nM. The value for `COc1ccc(-n2c(C(=O)NCc3ccc(C#N)cc3)c3n(c2=O)CCN(C(=O)c2ccc(Br)c(Cl)c2)C3)cc1` [Example 180, 7-(4-bromo-3-chloro-benzoyl)-N-[(4-cyanophenyl)methyl]-2-(4-methoxyphenyl)-3-oxo-6,8-dihydro-5H-imidazo[1,5-a]pyrazine-1-carboxamide] was 500 to 5000 nM. The value for `COc1ccc(CNC(=O)c2c3n(c(=O)n2-c2ccc(OC4CC4)cc2)CCN(C(=O)c2ccc(Br)c(Cl)c2)C3)c(F)c1` [Example 460, 7-(4-bromo-3-chloro-benzoyl)-2-[4-(cyclopropoxy)phenyl]-N-[(2-fluoro-4-methoxy-phenyl)methyl]-3-oxo-6,8-dihydro-5H-imidazo[1,5-a]pyrazine-1-carboxamide] was 100 to 500 nM; that for `CC(C)Oc1ccc(-n2c(C(=O)NC(C)c3ccccc3)c3n(c2=O)CCN(C(=O)c2ccc(Br)c(Cl)c2)C3)cc1` (racemic) [Example 118, 7-(4-bromo-3-chloro-benzoyl)-2-(4-isopropoxyphenyl)-3-oxo-N-[rac-(1R)-1-phenylethyl]-6,8-dihydro-5H-imidazo[1,5-a]pyrazine-1-carboxamide] was 100 to 500 nM; that for `O=C(NCc1ccccc1)c1c2n(c(=O)n1-c1ccc(-n3cccn3)cc1)CCN(C(=O)c1ccc(Br)c(Cl)c1)C2` [Example 271, N-benzyl-7-(4-bromo-3-chloro-benzoyl)-3-oxo-2-(4-pyrazol-1-ylphenyl)-6,8-dihydro-5H-imidazo[1,5-a]pyrazine-1-carboxamide] was 100 to 500 nM. Take `COc1ccc(CNC(=O)c2c3n(c(=O)n2-c2ccc(C#N)cc2)CCN(C(=O)c2ccc(Br)c(Cl)c2)C3)c(C)c1` [Example 163, 7-(4-bromo-3-chloro-benzoyl)-2-(4-cyanophenyl)-N-[(4-methoxy-2-methyl-phenyl)methyl]-3-oxo-6,8-dihydro-5H-imidazo[1,5-a]pyrazine-1-carboxamide]: the EC50 lay within 500 to 5000 nM. With `C[C@H](NC(=O)c1c2n(c(=O)n1-c1ccc(OCC(F)(F)F)cc1)CCN(C(=O)c1ccc(Br)c(Cl)c1)C2)c1ccc(OC(F)F)cc1F` (stereo in doubt) [Example 318, 7-(4-bromo-3-chloro-benzoyl)-3-oxo-N-[rac-(1S)-1-[4-(difluoromethoxy)-2-fluoro-phenyl]ethyl]-2-[4-(2,2,2-trifluoroethoxy)phenyl]-6,8-dihydro-5H-imidazo[1,5-a]pyrazine-1-carboxamide] the figure was 100 to 500 nM; with `C[C@H](NC(=O)c1c2n(c(=O)n1-c1ccc(OC3CC3)cc1)CCN(C(=O)c1ccc(Br)c(Cl)c1)C2)c1ccc(OC(F)(F)F)cc1F` (stereo in doubt) [Example 291, 7-(4-bromo-3-chloro-benzoyl)-2-[4-(cyclopropoxy)phenyl]-3-oxo-N-[rac-(1S)-1-[2-fluoro-4-(trifluoromethoxy)phenyl]ethyl]-6,8-dihydro-5H-imidazo[1,5-a]pyrazine-1-carboxamide], 500 to 5000 nM; with `CC[C@@H](NC(=O)c1c2n(c(=O)n1-c1ccc(OC)cc1)CCN(C(=O)c1ccc(Br)c(Cl)c1)C2)c1ccccc1` (stereo in doubt) [Example 150, 7-(4-bromo-3-chloro-benzoyl)-2-(4-methoxyphenyl)-3-oxo-N-[rac-(1R)-1-phenylpropyl]-6,8-dihydro-5H-imidazo[1,5-a]pyrazine-1-carboxamide], 100 to 500 nM.

These data come from US11591341B2 (ALIGOS THERAPEUTICS, INC., priority 2019, dated 2023).
